Assay results from article PMC6010545, “Identification of a Novel Polyamine Scaffold With Potent Efflux Pump Inhibition Activity Toward Multi-Drug Resistant Bacterial Pathogens” (Frontiers in Microbiology, 2018).
pEC50: −log10 of the molar value. ≈ marks a conversion by molar mass, not a printed value. Where “and” joins values, the source holds several entries; their conditions need not be identical. Identical values can stand only once. Entries after “also recorded” stand apart in the source; their conditions may differ. Like-named read-outs stand apart in the source and are kept apart here. Residues, ends and D or L forms follow the SMILES beside them. No end group written: not given here. *: point of attachment. βNA = c1ccc2cc(N*)ccc2c1

Assays:
MTT cytotoxicity assay = assay type: cell-based; details: human, 25 μg mL^-1, 48 h, read-out: percent recovery (cell viability)
Experimental: To assess toxicity of polyamine compounds we used HepG2 human liver carcinoma cells and Hek293T human embryonic kidney epithelial cells. The viability of cell lines was determined using a 3-(4,5-dimethylthiazol-2-yl)-2,5-diphenyltetrazolium bromide (MTT) molecular probe as previously described by our group ([Fleeman et al., 2015]). Briefly, 247, 266, 271 (Hek293T), or 250, 271, 314 (HepG2), alongside control efflux pump inhibitor PaβN, were diluted in 10% DMF from 25 μg mL^-1 to 3 μg mL^-1 using twofold dilutions, before being added to cells in DMEM with 10% FBS and 1% penicillin/streptomycin. Cells were then incubated for 48 h at 37°C with 5% CO2. Following this, viability was assessed by the addition of MTT and measuring the OD570 in a Biotek plate reader. Percent recovery was determined compared to no drug controls.

[1] = tested on: tetracycline-resistant P. aeruginosa isolate 1419; assay: Checkerboard potentiation assay with tetracycline; assay type: cell-based, Pseudomonas aeruginosa; details: for EC50: 20 h, inhibitor alone, 25 μg mL^-1 highest concentration tested, read-out: EPI* (inhibitory concentration of efflux pump inhibitor alone)
Experimental: (§1) Scaffold ranking library samples and individual polyamines were screened using checkerboard inhibitory assays to assess the potentiation of tetracycline and chloramphenicol. The test utilized a 96-well plate microtiter assay where the concentration of the scaffold or individual polyamine was decreased from 25 to 0.8 μg mL^-1 (average molarity of mixture samples 65 to 4 μM) along the rows, and the concentration of tetracycline or chloramphenicol was increased from 0.4 to 100 μM across the columns. […] However, with the known antibiotics, we report EC90 values in μM, which more accurately describes purified compounds. Plates were incubated statically at 37°C for 20 h, and the optical density (OD600) was determined using a Synergy 2 plate reader (BioTek). Potentiation modeling (detailed below) was performed to determine fold change in the 50 and 90% effective concentration of tetracycline or chloramphenicol.
Potentiation was quantified using a mathematical model developed by our group to assess the ability of library samples and individual compounds to effectively enhance the activity of tetracycline or chloramphenicol ([Hoel, 1987]). […] In this way, only libraries and compounds that potentiated tetracycline or chloramphenicol activity were pursued. The model is based on the following equation for modeling the percentage activity of a mixture of two agents with independent action ([Hoel, 1987]):
%Antibiotic & Comp(X1,X2)=%Antibiotic(X1)+%Comp(X2)−%Antibiotic(X1)⋅%Comp(X2)
Here, x1 and x2 are the concentrations of antibiotic (tetracycline or chloramphenicol) and library/compound (Comp) tested, respectively. This equation can be rearranged to model the effective percent activity (EC) of the antibiotic alone, after accounting for compound activity:
Eff%Antibiotic(X1)=%Antibiotic & Compound(X1,X2)−%Compound(X2)/1−%Compound(X2)
Thus, the model-adjusted checkerboards show the antibiotic activity post-potentiation, and from that one can determine the true change in Mic.

MRSA (USA300) = assay: Potentiation of chloramphenicol, MRSA USA300 and norA mutant; assay type: cell-based, S. aureus
Experimental: as §1
Potentiation was quantified using a mathematical model developed by our group to assess the ability of library samples and individual compounds to effectively enhance the activity of tetracycline or chloramphenicol ([Hoel, 1987]). […] In this way, only libraries and compounds that potentiated tetracycline or chloramphenicol activity were pursued. […]

P. aeruginosa = assay: Minimum inhibitory concentrations of antibiotics, P. aeruginosa isolates; assay type: cell-based; details: Pseudomonas aeruginosa, read-out: minimal inhibitory concentration
Experimental: (§2) The bacterial strains used in this study are multi-drug resistant clinical isolates that have previously been described (Supplementary Table S1; [Fleeman et al., 2015]). Organisms were grown in tryptic soy broth (TSB) for overnight cultures and cation adjusted Mueller Hinton broth (CA-MH II) was used for experimental procedures. All incubations were performed at 37°C. The minimum inhibitory concentrations (MICS) for all antibiotics tested against these organisms are shown in Supplementary Table S1.

P. aeruginosa (1419) [2] = assay: Bactericidal assessment in combination with tetracycline; details: Pseudomonas aeruginosa, read-out: percent recovery (bacterial viability)
Experimental: Lead agents were screened for bactericidal activity as described by us previously ([Van Horn et al., 2014]; [Fleeman et al., 2015]), with the following modifications. Varying concentrations of tetracycline (0, 12, 25, and 50 μM) were used in combination with the MPC (25 μM) of lead agents 247, 250, 266, 271, and 314 against P. aeruginosa. […] Biofilm experiments were performed similar to those described by us previously ([Fleeman et al., 2015]; [von Salm et al., 2016]), with the following modifications. Polyamine agents 247, 250, 266, 271, and 314 were added at MPC into biofilm containing wells alongside varying concentrations of tetracycline (0, 12, 25, and 50 μM). Cellular viability was determined by serial dilution after a 20-h incubation at 37°C. Values were converted to percent recovery using no treatment controls. All data was generated from three biological replicates and two technical replicates.

A. baumannii 1643 = assay: Minimum inhibitory concentrations of antibiotics, A. baumannii isolate; assay type: cell-based; details: Acinetobacter baumannii; strain 1643; read-out: minimal inhibitory concentration
Experimental: as §2

P. aeruginosa (1419) [3] = assay: Bacterial membrane depolarization (DiSC3 dye); assay type: cell-based; details: 25 μg mL^-1
Experimental: To determine the level of membrane depolarization by polyamine compounds a 3,3′-dipropylthiadicarbocyanine Iodide (DiSC3) fluorescence dye was used. Exponentially growing cultures were prepared as described above, before being harvested by centrifugation. Cells were next washed in buffer a [5 mM Hepes (pH 7.2), 5 mM glucose] and resuspended to an OD600 of 0.2 in the same buffer containing 100 mM KCL and 2 μM DiSC3. Samples were allowed to equilibrate for 15 min at room temperature to ensure uptake and quenching of the dye in bacterial membranes. Cells were aliquoted into 96-well plates and polyamines were added alongside the known efflux inhibitor PAβN (all at 25 μg mL^-1). Nisin (25 μg mL^-1) was used as a positive control to display depolarization effects. A Biotek plate reader was used to monitor fluorescence of wells, with a 622 nm excitation and 670 nm emission. For graphical representation, the maximum relative fluorescence at 2 min was used for comparison of lead agents to controls.

S. aureus = assay: microbe, parasite or virus in culture; assay type: cell-based; details: Staphylococcus aureus
Experimental: as §2

[4] = tested on: P. aeruginosa proficient (1419) and deficient (1418) strain; assay: Aztreonam combination testing in efflux proficient and deficient strains; assay type: cell-based; details: strain 1419 (efflux proficient); polyamine 12.5 μg mL^-1, ½ X MIC aztreonam
Experimental: FIGURE 6 Confirming efflux pump inhibition by polyamines using efflux deficient strains. (A) A P. aeruginosa proficient (1419) and deficient (1418) strain were subjected to combination testing of the polyamines at 12.5 μg mL^-1 and ½ X MIC of aztreonam. Fold potentiation was calculated by dividing the CFU mL^-1 for aztreonam only by the CFU mL^-1 of the combined treatment groups. (B) Lead polyamine 247 was assessed for its ability to potentiate the activity of chloramphenicol toward S. aureus strain United States 300 and its norA mutant. Shown is the potentiated chloramphenicol EC90 calculated as described in A. Error bars are shown ± SEM.

[5] = Hek293T human embryonic kidney epithelial cells, vs solvent only controls
[6] = 25 µg ml-1 TPI, EC50 tetracycline no TPI / with TPI
[7] = 25 µg ml-1 TPI, EC90 tetracycline no TPI / with TPI
[8] = HepG2 human liver carcinoma cells
[9] = EC50 tetracycline without EPI / with EPI
[10] = EC90 tetracycline without EPI / with EPI

Molecule: CNCCCC[C@@H](CN)NC[C@H](Cc1ccccc1)NCCc1ccccc1 [compound 247]
- recovery at 48 h, 25 μg mL^-1 (MTT cytotoxicity assay; [5]): 84%
- FP* (fold potentiation of tetracycline EC50) [1, 6]: 5 fold
- FP# (fold potentiation of tetracycline EC90) [1, 7]: 7.5 fold
- EC50 ([1]; Pseudomonas aeruginosa): > 25 µg/mL
- TPI (inhibitory concentration of polyamine alone) ([1]; 25 µg ml-1 highest tested): > 25 µg/mL
- potentiation of chloramphenicol (MRSA (USA300); norA knockout): little potentiation
- potentiation of chloramphenicol (MRSA (USA300); wild-type USA300): marked potentiation of antibiotic activity in a dose responsive manner; also recorded: strongly potentiate chloramphenicol activity

Molecule: N=C(N)NCCC[C@H](NC(=O)[C@@H](N)Cc1ccccc1)C(=O)Nc1ccc2ccccc2c1 [PAβN, phenylalanine arginine beta naphthalimide, reference compound] (H-Phe-Arg-βNA)
- recovery at 48 h, 25 μg mL^-1 (MTT cytotoxicity assay; [5]): 63%
- recovery at 48 h, 25 μg mL^-1 (MTT cytotoxicity assay; [8]): 68%

Molecule: C[C@H]1[C@H](NC(=O)/C(=N\OC(C)(C)C(=O)O)c2csc(N)n2)C(=O)N1S(=O)(=O)O [aztreonam]
- MIC (P. aeruginosa; strain 1418): 6 µM (≈ 2.61 µg/mL)
- MIC (P. aeruginosa; strain 1419): 1 µM (≈ 0.435 µg/mL)

Molecule: CN(C)[C@@H]1C(O)=C(C(N)=O)C(=O)[C@@]2(O)C(O)=C3C(=O)c4c(O)cccc4[C@@](C)(O)[C@H]3C[C@@H]12 [tetracycline]
- viability at 12 µM (P. aeruginosa (1419) [2]): 53%
- viability at 25 µM (P. aeruginosa (1419) [2]): 35%
- viability at 50 µM (P. aeruginosa (1419) [2]): 1%
- pEC50 ([1]; Pseudomonas aeruginosa, no polyamine, average across replicates, read-out: tetracycline alone EC50): 4.32
- EC90 ([1]; Pseudomonas aeruginosa, no library or polyamine, average across replicates, read-out: tetracycline alone EC90): 82.5 µM
- MIC (P. aeruginosa; strain 1418): 200 µM (≈ 88.9 µg/mL)
- MIC (P. aeruginosa; strain 1419): 100 µM (≈ 44.4 µg/mL)

Molecule: C[C@H]1COc2c(N3CCN(C)CC3)c(F)cc3c(=O)c(C(=O)O)cn1c23 [levofloxacin]
- MIC (A. baumannii 1643): 100 µM (≈ 36.1 µg/mL)

Molecule: NCCC[C@@H](CN[C@H](CN)Cc1ccccc1)NCCc1ccccc1 [compound 314]
- recovery at 48 h, 25 μg mL^-1 (MTT cytotoxicity assay; [8]): 77%
- FP* (fold potentiation of tetracycline EC50) [1, 6]: 5 fold
- FP# (fold potentiation of tetracycline EC90) [1, 7]: 7.5 fold
- FP* (fold potentiation of tetracycline EC50) [1, 9]: 5 fold and 5.0 fold
- FP# (fold potentiation of tetracycline EC90) [1, 10]: 7.5 fold
- EC50 ([1]; Pseudomonas aeruginosa): > 25 µg/mL
- TPI (inhibitory concentration of polyamine alone) ([1]; 25 µg ml-1 highest tested): > 25 µg/mL

Molecule: O=C(N[C@H](CO)[C@H](O)c1ccc([N+](=O)[O-])cc1)C(Cl)Cl [chloramphenicol]
- membrane depolarization (DiSC3 fluorescence change) (P. aeruginosa (1419) [3]): decreased in florescence
- MIC (A. baumannii 1643): 85 µM (≈ 27.5 µg/mL)
- MIC (P. aeruginosa; strain 1418): > 619 µM
- MIC (P. aeruginosa; strain 1419): 150 µM (≈ 48.5 µg/mL)
- MIC (S. aureus; USA100, strain 635 (USA100), read-out: minimal inhibitory concentration): 110 µM (≈ 35.5 µg/mL)
- MIC (S. aureus; USA300, read-out: minimal inhibitory concentration, strain JE-2 norA knockout (USA300)): 100 µM (≈ 32.3 µg/mL)
- MIC (S. aureus; USA300, strain JE-2 parental (USA300), read-out: minimal inhibitory concentration): 110 µM (≈ 35.5 µg/mL)

Molecule: COC(=O)[C@H]1[C@H]2C[C@@H]3c4[nH]c5cc(OC)ccc5c4CCN3C[C@H]2C[C@@H](OC(=O)c2cc(OC)c(OC)c(OC)c2)[C@@H]1OC [Reserpine, reserpine, reference compound]
- FP* (fold potentiation of tetracycline EC50) [1, 9]: 11.2 fold
- FP# (fold potentiation of tetracycline EC90) [1, 10]: 1 fold
- EC50 ([1]; Pseudomonas aeruginosa): > 25 µg/mL

Molecule: NCC[C@@H](CN)NC[C@H](Cc1ccccc1)NCCc1ccccc1 [compound 250]
- potentiation of aztreonam [4]: best potentiators of aztreonam
- recovery at 48 h, 25 μg mL^-1 (MTT cytotoxicity assay; [8]): 80%
- FP* (fold potentiation of tetracycline EC50) [1, 6]: 7 fold
- FP# (fold potentiation of tetracycline EC90) [1, 7]: 7.8 fold
- FP* (fold potentiation of tetracycline EC50) [1, 9]: 7.0 fold
- FP# (fold potentiation of tetracycline EC90) [1, 10]: 7.8 fold
- EC50 ([1]; Pseudomonas aeruginosa): > 25 µg/mL
- TPI (inhibitory concentration of polyamine alone) ([1]; 25 µg ml-1 highest tested): > 25 µg/mL

Molecule: nisin (ITSISLCTPGCKTGALMGCNMKTATCHCSIHVSK; cysteine pairing not given here; also: lantibiotic nisin-A; UniProt P13068 24-57, looked up) [positive control for membrane depolarization]
- membrane depolarization (DiSC3 fluorescence change) (P. aeruginosa (1419) [3]): strong increase in fluorescence

Molecule: NC(N)=NCCC[C@H](NC(=O)[C@@H](N)Cc1ccccc1)C(=O)Nc1ccc2ccccc2c1 [PAβN, phenylalanine arginine beta naphthalimide, reference compound] (H-Phe-Arg-βNA)
- membrane depolarization (DiSC3 fluorescence change) (P. aeruginosa (1419) [3]): strong increase in fluorescence
- viability at 25 µg/mL (P. aeruginosa (1419) [2]): 76%
- FP* (fold potentiation of tetracycline EC50) [1, 9]: 65.5 fold
- FP (fold potentiation of tetracycline EC90) ([1]; EC90 tetracycline no TPL / with TPL at 25 µg ml-1): 8.01 fold
- FP# (fold potentiation of tetracycline EC90) [1, 10]: 8 fold
- EC50 ([1]; Pseudomonas aeruginosa): > 25 µg/mL
- EC90 ([1]; Pseudomonas aeruginosa, Torrey Pines Library alone, 25 µg ml-1 highest tested, read-out: TPL (inhibitory concentration of library alone, EC90)): > 25 µg/mL
